The subject of data set [1] is CA3 neurons. As to conditions: cited from earlier work.
The subject of data set [2] is high-voltage-activated Ca2+ channels. As to conditions: hippocampal CA1 neurons; cited from earlier work.
For another data set, the target named is T1, N-type Ca2+ channel (Homo sapiens, UniProt Q00975).
T1 construct: N-type Ca2+ channels of hippocampal CA1 neurons; host or cells: hippocampal CA1 neurons
The following applies: calculated for 50 μM; cited from earlier work.

For a further data set, the system named is K+ channels. As to conditions: 100-500 μM; cited from earlier work.
Data set [3] deals with Na+-independent Cl−/HCO3− exchange. As to conditions: cited from earlier work.
In data set [4] the test system is CA3 neurons. The following applies: 50 μM; CO2/HCO3−-buffered; cited from earlier work.
For data set [5] the following is noted: raises metabolic rate and promotes weight loss; cited from earlier work.
Data set [6] has as its system human melanoma. As to conditions: well-tolerated doses; cited from earlier work.
The next data set has as its target proton pump (Homo sapiens, UniProt P20648). As to conditions: compared with classical PPIs; cited from earlier work.
The test system of data set [7] is human melanoma. As to conditions: preadministration; cited from earlier work.
Data set [8] deals with isolated normal rat hepatocyte. The following applies: 72 hours' treatment; read-out: 50% inhibitory concentrations (IC(50)); cited from earlier work.
A further data set concerns Huh-7 cells. As to conditions: cited from earlier work.
Data set [9] deals with subcutaneous xenografted Huh-7 cells. As to conditions: 1 or 10 mg/kg/d subcutaneously, 2 weeks, cited from earlier work.
A short description of data set [10]: Cancer patients treated orally with acid-efflux inhibitor combinations: side effects. It is filed as in vivo, human. The procedure:
Patients have been treated orally with a combination of drugs that inhibit the efflux of acid (H+, CO2, and/or lactic acid). Although these drugs tend to alkalinize the extracellular milieu of cancer cells, they may be administered in combinations that achieve a metabolic acidosis.
Esomeprazole (vacuolar H+ ATPase pump inhibitor) was used either daily or every other day, with a dose ranging from 240 mg per day up to 320 mg per day, or more.
Methazolamide (a carbonic anhydrase inhibitor) was used every other day with a dose ranging from 50 mg per day up to a maximum of 400 mg per day. […] Side effects were especially noticeable in a patient with elevated liver function tests due to metastatic disease to the liver.
Amiloride (Na−H+ exchanger inhibitor and an inhibitor of urokinase plasminogen activator) was used daily at a dose of 20 mg per day, or more. Because amiloride is a potassium-sparing diuretic, with a propensity to cause hyperkalemia, HCTZ, at 25 mg 2 times per day was administered as well. In addition, the use of amiloride in combination with HCTZ has shown to inhibit metastases more effectively than when amiloride is used alone.
NaHCO3 (Arm & Hammer Baking Soda) was used daily, in some cases, at a dose ranging from 5 grams to 30 grams per day, or more.
Intravenous lactate and/or glucose (with or without insulin) are useful for potentiating this therapy. […]

The next data set relates to human breast cancer. As to conditions: chronic oral administration; cited from earlier work.
A further data set concerns the target NHE1 (Homo sapiens, UniProt P19634). As to conditions: NHE1 inhibition; cited from earlier work.
Another data set relates to hepatoblastoma cells. The following applies: morphological observations and flow cytometry; cited from earlier work. For orientation: Flow cytometry measures light scatter and fluorescence of single cells or particles in a stream.
Data set [11] deals with normal human hepatic cells. The following applies: treated versus untreated cells; cited from earlier work.
For data set [12] the following is noted: as low as; dose dependent; cited from earlier work.

Counter-ions that a name gives are not always drawn. Like-named read-outs stand apart in the source and are kept apart here. Bounds are passed on as bounds.

Chain of proton pump (P20648 whole entry): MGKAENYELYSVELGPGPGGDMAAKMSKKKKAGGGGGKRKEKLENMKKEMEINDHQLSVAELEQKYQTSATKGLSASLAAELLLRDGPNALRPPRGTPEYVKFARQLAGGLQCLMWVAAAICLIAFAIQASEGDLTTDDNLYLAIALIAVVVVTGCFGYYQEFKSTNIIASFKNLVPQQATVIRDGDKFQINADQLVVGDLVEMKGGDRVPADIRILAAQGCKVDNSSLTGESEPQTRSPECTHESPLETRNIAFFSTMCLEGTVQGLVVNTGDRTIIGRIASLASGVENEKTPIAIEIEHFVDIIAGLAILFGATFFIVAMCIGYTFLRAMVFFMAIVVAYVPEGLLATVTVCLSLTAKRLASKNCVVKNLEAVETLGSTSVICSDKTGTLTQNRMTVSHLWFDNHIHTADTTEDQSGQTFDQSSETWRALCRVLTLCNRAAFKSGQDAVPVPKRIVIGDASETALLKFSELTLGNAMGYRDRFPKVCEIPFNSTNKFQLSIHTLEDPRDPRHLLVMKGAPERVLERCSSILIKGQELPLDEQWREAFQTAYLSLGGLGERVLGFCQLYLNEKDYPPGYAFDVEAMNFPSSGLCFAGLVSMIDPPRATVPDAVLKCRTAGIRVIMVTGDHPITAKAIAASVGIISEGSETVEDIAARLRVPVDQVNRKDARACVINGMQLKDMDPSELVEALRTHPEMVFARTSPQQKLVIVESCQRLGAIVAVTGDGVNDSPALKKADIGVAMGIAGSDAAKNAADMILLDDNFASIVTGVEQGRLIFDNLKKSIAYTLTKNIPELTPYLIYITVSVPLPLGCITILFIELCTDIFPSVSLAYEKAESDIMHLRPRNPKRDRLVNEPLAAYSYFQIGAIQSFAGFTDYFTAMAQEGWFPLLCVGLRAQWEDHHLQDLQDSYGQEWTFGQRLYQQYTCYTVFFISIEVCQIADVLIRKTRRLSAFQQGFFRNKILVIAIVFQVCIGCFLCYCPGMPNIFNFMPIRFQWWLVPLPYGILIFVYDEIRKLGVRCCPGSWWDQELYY
Chain of proton pump (P51164 whole entry partner): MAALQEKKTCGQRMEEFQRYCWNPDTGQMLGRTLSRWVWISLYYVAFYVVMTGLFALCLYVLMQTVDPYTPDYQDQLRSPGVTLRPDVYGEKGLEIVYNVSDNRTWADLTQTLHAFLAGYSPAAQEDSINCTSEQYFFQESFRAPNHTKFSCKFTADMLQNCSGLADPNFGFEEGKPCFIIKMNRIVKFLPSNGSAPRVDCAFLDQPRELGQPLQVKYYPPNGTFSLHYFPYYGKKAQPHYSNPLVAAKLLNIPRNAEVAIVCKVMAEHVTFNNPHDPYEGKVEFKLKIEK
Chain of NHE1 (P19634 whole entry, species assumed): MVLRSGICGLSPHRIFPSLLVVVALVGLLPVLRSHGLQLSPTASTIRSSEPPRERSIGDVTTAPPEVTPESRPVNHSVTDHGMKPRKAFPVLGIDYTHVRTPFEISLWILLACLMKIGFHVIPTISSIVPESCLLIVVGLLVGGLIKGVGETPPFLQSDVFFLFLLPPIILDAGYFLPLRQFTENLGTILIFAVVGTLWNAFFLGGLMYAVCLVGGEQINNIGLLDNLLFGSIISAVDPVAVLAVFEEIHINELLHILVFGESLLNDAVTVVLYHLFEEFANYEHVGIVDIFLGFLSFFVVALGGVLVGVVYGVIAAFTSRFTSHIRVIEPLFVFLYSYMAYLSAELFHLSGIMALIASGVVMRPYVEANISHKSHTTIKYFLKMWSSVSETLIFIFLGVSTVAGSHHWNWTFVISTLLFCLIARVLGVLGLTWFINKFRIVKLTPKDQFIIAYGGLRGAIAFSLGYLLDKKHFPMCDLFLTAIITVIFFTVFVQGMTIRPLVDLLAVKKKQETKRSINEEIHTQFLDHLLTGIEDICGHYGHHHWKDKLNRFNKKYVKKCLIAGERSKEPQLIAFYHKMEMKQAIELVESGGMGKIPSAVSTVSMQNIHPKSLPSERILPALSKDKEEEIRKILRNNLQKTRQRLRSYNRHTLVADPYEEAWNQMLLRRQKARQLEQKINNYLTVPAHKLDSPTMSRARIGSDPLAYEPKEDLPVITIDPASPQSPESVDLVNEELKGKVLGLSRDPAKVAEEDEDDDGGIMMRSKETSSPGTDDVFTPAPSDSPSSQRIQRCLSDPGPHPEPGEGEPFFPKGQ
T1 sequence (Q00975 whole entry): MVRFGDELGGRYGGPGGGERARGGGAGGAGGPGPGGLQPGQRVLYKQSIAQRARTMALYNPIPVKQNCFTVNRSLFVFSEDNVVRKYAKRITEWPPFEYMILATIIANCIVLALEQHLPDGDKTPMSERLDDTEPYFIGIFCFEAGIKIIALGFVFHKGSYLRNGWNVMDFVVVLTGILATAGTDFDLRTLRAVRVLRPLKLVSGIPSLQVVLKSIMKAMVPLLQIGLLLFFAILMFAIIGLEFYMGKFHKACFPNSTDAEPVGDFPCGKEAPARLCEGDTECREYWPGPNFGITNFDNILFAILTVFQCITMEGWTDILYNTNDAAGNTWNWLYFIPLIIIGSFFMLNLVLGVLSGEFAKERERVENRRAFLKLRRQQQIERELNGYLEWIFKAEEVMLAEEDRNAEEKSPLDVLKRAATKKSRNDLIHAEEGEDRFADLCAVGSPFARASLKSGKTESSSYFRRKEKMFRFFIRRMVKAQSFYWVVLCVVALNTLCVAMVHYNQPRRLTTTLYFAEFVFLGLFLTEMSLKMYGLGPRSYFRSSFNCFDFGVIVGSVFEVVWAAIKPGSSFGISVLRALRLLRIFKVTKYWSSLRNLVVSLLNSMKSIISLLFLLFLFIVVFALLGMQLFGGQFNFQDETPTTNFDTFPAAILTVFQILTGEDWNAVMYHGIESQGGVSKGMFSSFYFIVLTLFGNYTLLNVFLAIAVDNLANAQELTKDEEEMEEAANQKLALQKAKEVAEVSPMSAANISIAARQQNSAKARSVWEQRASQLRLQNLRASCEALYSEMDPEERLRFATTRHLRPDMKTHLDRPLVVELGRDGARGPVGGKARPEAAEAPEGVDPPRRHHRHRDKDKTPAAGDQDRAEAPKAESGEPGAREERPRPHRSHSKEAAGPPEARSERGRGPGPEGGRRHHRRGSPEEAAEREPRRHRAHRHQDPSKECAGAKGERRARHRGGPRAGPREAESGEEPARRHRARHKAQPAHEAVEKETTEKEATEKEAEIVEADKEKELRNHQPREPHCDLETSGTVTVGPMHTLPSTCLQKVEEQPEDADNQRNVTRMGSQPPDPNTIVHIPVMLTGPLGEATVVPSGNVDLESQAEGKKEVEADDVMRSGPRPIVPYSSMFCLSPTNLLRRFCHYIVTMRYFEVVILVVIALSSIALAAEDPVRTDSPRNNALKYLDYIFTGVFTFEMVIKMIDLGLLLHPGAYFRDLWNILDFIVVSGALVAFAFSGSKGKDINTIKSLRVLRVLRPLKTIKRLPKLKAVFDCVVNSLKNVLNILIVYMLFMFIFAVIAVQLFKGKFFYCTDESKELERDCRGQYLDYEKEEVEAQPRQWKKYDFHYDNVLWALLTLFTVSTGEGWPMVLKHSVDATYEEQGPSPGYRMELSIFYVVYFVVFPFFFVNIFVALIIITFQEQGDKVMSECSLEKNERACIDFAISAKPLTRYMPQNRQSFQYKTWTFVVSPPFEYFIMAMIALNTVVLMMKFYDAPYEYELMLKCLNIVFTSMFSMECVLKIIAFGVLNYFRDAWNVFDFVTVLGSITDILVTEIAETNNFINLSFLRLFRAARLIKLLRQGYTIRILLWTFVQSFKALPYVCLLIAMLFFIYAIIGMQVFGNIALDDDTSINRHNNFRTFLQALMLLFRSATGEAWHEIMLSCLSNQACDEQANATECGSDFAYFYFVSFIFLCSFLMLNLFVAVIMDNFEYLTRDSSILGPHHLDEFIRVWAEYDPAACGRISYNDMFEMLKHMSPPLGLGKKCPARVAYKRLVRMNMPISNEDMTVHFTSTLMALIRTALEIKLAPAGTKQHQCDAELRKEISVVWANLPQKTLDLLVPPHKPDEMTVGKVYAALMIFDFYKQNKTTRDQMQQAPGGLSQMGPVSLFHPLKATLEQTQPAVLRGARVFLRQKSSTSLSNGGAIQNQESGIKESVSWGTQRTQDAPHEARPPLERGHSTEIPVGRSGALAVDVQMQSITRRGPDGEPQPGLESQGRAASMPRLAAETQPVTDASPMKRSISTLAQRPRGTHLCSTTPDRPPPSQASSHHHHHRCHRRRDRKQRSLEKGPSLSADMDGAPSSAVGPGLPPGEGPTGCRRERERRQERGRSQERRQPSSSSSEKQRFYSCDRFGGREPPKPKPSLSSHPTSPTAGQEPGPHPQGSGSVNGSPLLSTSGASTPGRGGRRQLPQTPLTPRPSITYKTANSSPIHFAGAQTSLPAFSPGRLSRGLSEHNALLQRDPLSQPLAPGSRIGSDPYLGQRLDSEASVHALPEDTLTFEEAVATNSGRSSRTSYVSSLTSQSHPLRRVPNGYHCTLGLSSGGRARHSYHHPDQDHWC

Consider `CC[C@@H](C(N)=O)N1CCCC1=O` [LEV, levetiracetam], for which the entries for the “effect on pHi” value in the data set with CA3 neurons [1] (1 μM (n=4)) and with CA3 neurons [1] (increase to 100 μM (n=4)) were “without any effect” and “without additional effect”, respectively. Further, in the data set with CA3 neurons [1] (10 μM (n=3)), the “effect on steady-state pHi” value is reported as “Small shifts”. In addition, the “steady-state pHi” value with CA3 neurons [1] (50 μM, Na+-free CO2/HCO3−-buffered solution, n=5) is listed as “not likely further influenced”. Also, the “mean acidification of steady-state pHi, nonresponding neurons excluded” value in the data set on CA3 neurons [1] (50 μM, neuronal somata, CO2/HCO3−-buffered solution, n=8) is listed as 0.19±0.07 pH units. Besides, the “mean acidification of steady-state pHi” value with CA3 neurons [1] (50 μM, neuronal somata, CO2/HCO3−-buffered solution, n=11) is 0.14±0.09 pH units. In addition, the “decrease of pHi” value with CA3 neurons [1] (50 μM, nominal absence of extracellular CO2/HCO3−, HEPES pH 7.4, n=5) is listed as “abolished”. Further, the “decrease of pHi of larger regions” value in the data set with CA3 neurons [1] (50 μM, stratum pyramidale, CO2/HCO3−-buffered solution, n=5) is on record as 0.11±0.04 pH units. The “reduction of high-voltage-activated calcium currents” value in data set [2] was “about 20%”. Also, the “reduction of N-type Ca2+ channel currents” value at N-type Ca2+ channel was “ca. 15%”. Further, in the data set with K+ channels, the “inhibition of K+ channels” value was “less than 20%”. The “alkalinization upon removal of extracellular Cl−” value in data set [3] (50, preincubation 15 min, n=5) was “no effect”. Further, in the data set with CA3 neurons [4], the “steady-state pHi after preincubation” value was 6.82.

Take `O=[N+]([O-])c1ccc(O)c([N+](=O)[O-])c1` [DNP, dinitrophenol]: the “reasonably well tolerated daily dose” value in data set [5] is 3 to 5 mg/kg.

On to `O=S(=O)(O)c1cc(N=C=S)ccc1C=Cc1ccc(N=C=S)cc1S(=O)(=O)O` [DIDS, 4,4′-diisothiocyanato-stilbene-2,2′-disulfonic acid], for which, in data set [3] (500 μM, pretreatment 15 min, n=3), the “alkalinization upon removal of extracellular Cl−” value is “completely abolished”.

For the molecule `COc1ccc2nc([S@@+]([O-])Cc3ncc(C)c(OC)c3C)[nH]c2c1` [esomeprazole, Esomeprazole], the “tumor growth and survival” value in the data set with human melanoma [6] is “markedly impede tumor growth and prolong survival”.

Take `Cc1nc(Nc2ccc(F)cc2)nc(N2CCc3ccccc3C2C)c1C` (stereo not drawn) [revaprazan]: at proton pump, the “time to block H+ secretion” value was “within a half-hour”.

On to `COc1ccc2[nH]c([S+]([O-])Cc3ncc(C)c(OC)c3C)nc2c1` (stereo not drawn) [omeprazole], for which the “growth-retardant impact of cisplatin” value in the data set on human melanoma [7] is reported as “potentiate the growth-retardant impact of cisplatin”.

Turning to `COC1=CC(c2ccc[nH]2)=N/C1=C\c1[nH]c(C)c2c1C(C)CCC2` (stereo not drawn) [cPrG-HCl, Cycloprodigiosin hydrochloride], in data set [8], the IC50 is 8.4 µM. Also, the pHi in the data set on Huh-7 cells (lowered pHi) is below 6.8. Further, the apoptosis result with Huh-7 cells (subG(1) population, DNA fragmentation, chromatin condensation) is “induced apoptosis”. In data set [9], the “pathological changes in organs” value is “No pathological changes were observed in any organs” and the “serum alanine transaminase levels” value is given as “remained within normal limits”. For the same molecule, the tumor growth result in data set [9] (compared with the control after 8 days) is recorded as “significantly inhibited tumor growth”.

As for `O=C([O-])O.[Na+]` [sodium bicarbonate], in data set [10] (daily, 5 grams to 30 grams per day), the side effects entry was “bloating and abdominal discomfort”. Further, in the data set on human breast cancer, the “expansion of primary tumors” value is reported as “not influencing the expansion of primary tumors”; the “metastases in lung, visceral organs, and lymph nodes” value was “markedly reduces the number and size of metastases”.

For the molecule `CCN(c1nc(N)c(C(=O)N=C(N)N)nc1Cl)C(C)C` [EIPA, 5-(N-ethyl-N-isopropyl)-amiloride], on NHE1, the “potency relative to amiloride” value is on record as “about 200 times”.

Turning to `CO/C1=C\C(C)=C\[C@@H](C)[C@@H](O)[C@@H](C)C/C(C)=C/C=C/[C@H](OC)[C@@H]([C@@H](C)[C@@H](O)[C@H](C)[C@@]2(O)C[C@@H](O)[C@H](C)[C@@H](C(C)C)O2)OC1=O` [Baf-A1, Bafilomycin A1], the “cellular reproduction and apoptosis” value with hepatoblastoma cells is given as “inhibits hepatoblastoma cellular reproduction by inducing apoptosis”. Also, the “inhibition of cell growth” value in data set [11] is reported as “negligible”.

Turning to `CC(=O)/N=c1/sc(S(N)(=O)=O)nn1C` [Methazolamide], the side effects entry in data set [10] (every other day, 50 mg per day up to 400 mg per day) is “tingling in extremities, acidosis, fatigue, and nausea”.

On to `N=C(N)NC(=O)c1nc(Cl)c(N)nc1N` [amiloride], for which, in data set [12], the doses found effective is listed as at least 0.3 mg/kg body weight per day.

Take `COCCO[C@@H]1c2ccn3c(C)c(C)nc3c2N[C@H](c2ccccc2)[C@H]1O` [Soraprazan]: on proton pump, the “time to block H+ secretion” value is listed as “within a half-hour”.
